Measurements from BindingDB's records for doi:10.1016/j.bmcl.2012.06.068 (Chulalongkorn University, 2012).

Columns and labels:
[1] = Competitive inhibition of rat intestinal maltase using maltose as substrate assessed as dissociation of enzyme-inhibitor complex at 0.1 to 1 mg/ml by Dixon plot analysis
[2] = Non-competitive inhibition of rat intestinal maltase using maltose as substrate assessed as dissociation of enzyme-substrate-inhibitor complex at 0.1 to 1 mg/ml by secondary plot analysis

Ki [1]: 288 µM | Ki [2]: 1340 µM
Structure (SMILES): COc1cc([C@@H]2OC[C@@H]3[C@H]2CO[C@H]3c2ccc(O)c(OC)c2)ccc1O [4-[(1S,3aR,4S,6aR)-4-(4-hydroxy-3-methoxyphenyl)tetrahydro-1H,3H-furo[3,4-c]furan-1-yl]-2-methoxyphenol]
